According to ChEMBL document CHEMBL1201862, “PubChem BioAssay data set” (2004):
The source made the active and inactive calls.

Tests used:
Format in all cases: functional
[1] = biological target: T1, High affinity choline transporter 1 (Homo sapiens, UniProt Q9GZV3); assay: CHT inhibitors, dose response, cell-based, 5-point CRC, membrane potential dye (AID 504840)
T1 sequence (Q9GZV3 whole entry): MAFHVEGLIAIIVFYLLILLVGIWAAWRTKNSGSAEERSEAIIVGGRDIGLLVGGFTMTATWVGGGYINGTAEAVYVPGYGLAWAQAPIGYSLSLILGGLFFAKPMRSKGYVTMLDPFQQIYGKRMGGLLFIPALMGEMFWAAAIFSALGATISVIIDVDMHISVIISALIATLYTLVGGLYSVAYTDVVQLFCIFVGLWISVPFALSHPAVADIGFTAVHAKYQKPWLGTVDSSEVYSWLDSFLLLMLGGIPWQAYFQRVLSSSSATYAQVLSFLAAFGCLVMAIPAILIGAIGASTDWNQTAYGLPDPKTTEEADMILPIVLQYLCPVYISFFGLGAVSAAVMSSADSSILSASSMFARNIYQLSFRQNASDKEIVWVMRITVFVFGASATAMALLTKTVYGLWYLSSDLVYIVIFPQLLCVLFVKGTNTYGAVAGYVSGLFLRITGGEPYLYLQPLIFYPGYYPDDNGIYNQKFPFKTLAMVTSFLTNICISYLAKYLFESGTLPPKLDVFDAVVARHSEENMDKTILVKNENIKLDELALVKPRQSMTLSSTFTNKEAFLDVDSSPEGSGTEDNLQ

[2] = biological target: T1, High affinity choline transporter 1; assay: CHT inhibitors, dose response, cell-based, 10-point CRC, membrane potential dye (AID 588401);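 also: membrane potential dye fluorescence of choline-evoked depolarization via CHT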
[3] = tested on: Vero; assay: Vero cell cytotoxicity, cytotoxicity control for flavivirus capping enzyme inhibitors (AID 588742); conditions: Chlorocebus sabaeus
[4] = Luminescence Cell-Based Dose Retest to Confirm Inhibitors of Cancer Stem Cells. [Related pubchem assays (depositor defined):AID2717, AID2721]; conditions: Homo sapiens
[5] = biological target: Genome polyprotein (dengue virus type 2, UniProt P29990); assay: Dengue-2 NS5 methyltransferase inhibitors, primary screen, biochemical, confirmation dose response (AID 588689)
Sequence of Genome polyprotein (P29990 2492-3391 limits assumed): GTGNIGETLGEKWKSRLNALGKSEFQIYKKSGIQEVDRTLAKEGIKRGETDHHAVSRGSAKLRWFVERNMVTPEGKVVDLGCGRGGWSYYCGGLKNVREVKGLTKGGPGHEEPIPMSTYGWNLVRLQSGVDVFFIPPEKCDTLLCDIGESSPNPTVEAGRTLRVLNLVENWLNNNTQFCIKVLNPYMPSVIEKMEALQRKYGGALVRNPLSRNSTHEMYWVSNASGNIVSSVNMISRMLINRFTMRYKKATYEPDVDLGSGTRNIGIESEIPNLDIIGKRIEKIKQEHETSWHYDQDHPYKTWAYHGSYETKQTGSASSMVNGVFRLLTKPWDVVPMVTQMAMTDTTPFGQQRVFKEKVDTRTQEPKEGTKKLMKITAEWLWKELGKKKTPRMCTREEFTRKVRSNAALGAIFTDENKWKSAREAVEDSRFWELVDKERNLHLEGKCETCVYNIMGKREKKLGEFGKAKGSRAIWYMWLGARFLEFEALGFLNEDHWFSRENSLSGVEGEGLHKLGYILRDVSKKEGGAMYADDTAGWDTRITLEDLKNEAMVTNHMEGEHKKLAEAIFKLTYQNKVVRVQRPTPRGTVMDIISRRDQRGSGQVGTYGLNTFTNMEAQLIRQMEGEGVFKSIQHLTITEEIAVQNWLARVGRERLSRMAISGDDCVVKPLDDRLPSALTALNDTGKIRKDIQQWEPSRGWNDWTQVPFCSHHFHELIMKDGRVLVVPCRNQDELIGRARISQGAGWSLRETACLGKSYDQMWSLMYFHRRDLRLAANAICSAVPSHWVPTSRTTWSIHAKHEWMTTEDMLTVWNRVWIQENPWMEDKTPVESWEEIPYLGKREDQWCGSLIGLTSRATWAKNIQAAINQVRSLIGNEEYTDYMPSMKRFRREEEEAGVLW

[6] = biological target: Melanin-concentrating hormone receptor 1 (Homo sapiens, UniProt Q99705); assay: Late-stage fluorescence-based counterscreen for antagonists of the G-protein coupled receptor 7 (GPR7): cell-based dose response assay to identify antagonists of the melanin-concentrating hormone receptor 1 (MCHR1) Set 6.
Sequence of Melanin-concentrating hormone receptor 1 (Q99705 whole entry): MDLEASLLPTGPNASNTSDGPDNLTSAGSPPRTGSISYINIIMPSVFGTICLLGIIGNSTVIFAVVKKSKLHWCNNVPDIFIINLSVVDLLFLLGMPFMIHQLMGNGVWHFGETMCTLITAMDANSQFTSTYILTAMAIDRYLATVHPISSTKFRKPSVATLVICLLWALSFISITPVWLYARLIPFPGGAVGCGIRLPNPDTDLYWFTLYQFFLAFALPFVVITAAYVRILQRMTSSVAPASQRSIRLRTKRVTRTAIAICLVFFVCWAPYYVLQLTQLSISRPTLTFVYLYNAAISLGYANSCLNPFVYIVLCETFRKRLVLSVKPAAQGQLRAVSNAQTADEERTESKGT

[7] = biological target: T2, Neuropeptides B/W receptor type 1 (Homo sapiens, UniProt P48145); assay: GPR7 antagonist potency, late-stage follow-up, cell-based, fluorescence, dose response, set 6 (AID 588583)
T2 sequence (P48145 whole entry): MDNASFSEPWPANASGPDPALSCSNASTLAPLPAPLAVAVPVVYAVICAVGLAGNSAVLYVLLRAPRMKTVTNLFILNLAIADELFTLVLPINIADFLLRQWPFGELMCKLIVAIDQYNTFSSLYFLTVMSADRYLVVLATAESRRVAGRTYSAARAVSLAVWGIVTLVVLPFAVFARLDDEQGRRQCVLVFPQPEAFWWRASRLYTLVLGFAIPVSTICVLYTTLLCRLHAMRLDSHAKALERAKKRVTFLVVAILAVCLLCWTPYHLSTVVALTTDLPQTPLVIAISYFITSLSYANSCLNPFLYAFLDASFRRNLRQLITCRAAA
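For AC50 in this document: cells exposed to compound for roughly 70 hours or longer before luminescence read.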

COc1ccc(C)cc1NC(=O)c1ccccc1NS(=O)(=O)c1ccc(Cl)s1
active: IC50 [1] 5.82 µM | IC50 [2] 1.75 µM | CC50 [3] 22.6 µM | AC50 [4] 5.21 µM | IC50 [5] 49.3 µM

N#CC(c1cccc(F)c1)c1c(Cl)cnn(Cc2cccc3ccccc23)c1=O (configuration not stated)
active: IC50 [6] 0.173 µM | IC50 [7] 0.173 µM
